Reference: patent US8591892B2, “FTY720 increases CD74 expression and sensitizes cancer cells to anti-CD74 antibody-mediated cell death” (The Ohio State University, priority 2011, dated 2013)
pKd: −log10 of the molar value. Entries after “also recorded” stand apart in the source; their conditions may differ. Like-named read-outs stand apart in the source and are kept apart here.

Columns and labels:
[1] = system: CD74 in Jeko-1, Mino, UPN-1 and Z-138 cells; assay: Confocal microscopy of total CD74 with rhodamine-conjugated milatuzumab; assay type: cell-based, human; settings: Jeko-1 and Mino cells, non-immobilized, 5 μg/ml
Procedure: Cells were stained with an anti-CD74 antibody (FITC conjugated and CD74 MFI was measured by flow cytometry. Representative histograms summarizing the MFI of untreated and treated Jeko-1, Mino, UPN-1 and Z-138 cells are shown. (C) The amount of total cellular CD74 was determined by confocal microscopy. Jeko-1, Mino, UPN-1 and Z-138 cells were treated with FTY720 at the indicated doses, chloroquine (40 μM), rapamycin (10 μM) or the combination of FTY720 and chloroquine, for 4, 8 and 24 hours. CD74 fluorescence intensity was measured in 4 microscopic fields and integrated intensity was averaged relative to the number of cells per field (˜180-220 cells per condition).
MCL cells for confocal fluorescence microscopy were fixed and stained as previously described (Alinari et al., 2011, Blood 117:4530-41). Briefly, after exposure to drugs, cells were made adherent on a microscope slide by centrifugation. Immediately after cytospin, cells were fixed in cold acetone for two minutes. For CD74 immunofluorescence, the cells were incubated with rhodamine-conjugated milatuzumab. […] Nuclei were stained blue with DAPI (Vector laboratories, Burlingame, Calif.). […] For quantification, 4 microscopic fields per slide were analyzed. Nuclei count was performed using an edge constrained marker-controlled watershed for iterative fluorescence microscopic cell image splitting.

Jeko-1 and Mino cells = assay: Acridine orange staining, flow cytometry (lysosomal membrane permeability); assay type: cell-based, human; settings: 8 hours, vs untreated control
Procedure: Cells were then stained with AO (1 μg/mL) for 15 minutes. The relative changes in FL1 fluorescence were assessed by flow cytometry. Representative histograms summarizing AO fluorescence intensity of MCL treated with FTY720, chloroquine, rapamycin or combinations are shown (MFI of treated cells is normalized to the untreated controls. (C) Jeko-1 and Mino cells were treated with FTY720 at the indicated concentration in the presence or absence of cathepsin inhibitor III (5 and 10 μM). Cell death was determined by annexin V/PI staining and flow cytometry at 8 hours. Data are shown as percentage of annexin V−/PI− cells (live cells).
To assess lysosomal membrane permeability, FTY720 treated cells were incubated with acridine orange (MOLECULAR PROBES; INVITROGEN).
AO at acidic pH (i.e., lysosomal) fluoresces red, however, when AO leaks into a neutral pH (i.e., cytosolic), it causes an increase in green fluorescence that can be detected by flow cytometry.

[2] = system: MCL cell lines (Jeko-1, Mino, UPN-1, Z-138); assay: Immunoblot for p62; assay type: cell-based, human; settings: UPN-1 and Z-138 cells, 24 hours
From the text: (§1) FIG. 1. […] Actin was used as loading control. […] Actin was used as loading control.

[3] = system: MCL cell lines (Jeko-1, Mino, UPN-1, Z-138); assay: Immunoblot for LC3-I/LC3-II (autophagic flux); assay type: cell-based, human
From the text: as §1

[4] = system: Jeko-1 and Mino cell lines; assay: Transmission electron microscopy of ultrastructural changes; assay type: cell-based, human; settings: Jeko and Mino cells; chloroquine 40 μM, FTY720 10 μM
Procedure: Monolayer cells were grown in chamber slides in medium containing chloroquine (40 μM) or FTY720 (10 μM) for 12 hours. Prior to processing, the cells were fixed for 30 min in 2.5% glutaraldehyde in 0.1 M phosphate buffer pH 7.4. […] Images were obtained with a PEI TECHNAI™ G2 Spirit Transmission Electron Microscope.
We next examined ultrastructural morphologic changes in Jeko-1 and Mino cell lines treated with FTY720 using TEM.

[5] = system: MCL cell lines (Jeko-1, Mino, UPN-1, Z-138); assay: Confocal microscopy of total cellular LC3; assay type: cell-based, human
[6] = system: surface CD74 on Jeko-1 and Mino cells; assay: CD74-FITC staining and flow cytometry (CD74 MFI); assay type: cell-based, human; settings: 8 and 24 hours, vs untreated control or rapamycin
Procedure: (B) CD74 MFI of MCL cells treated with FTY720, chloroquine or rapamycin at the indicated concentrations after 8 and 24 hours. […] P values are calculated comparing FTY720, chloroquine and rapamycin treatment to the untreated control.
MCL cell lines were treated with FTY720, chloroquine (SIGMA, St Louis, Mo.) or rapamycin (CALBIOCHEM, San Diego, Calif.) for 8 and 24 hours and CD74 mean fluorescence intensity (MFI) was determined relative to a specific isotype control. After treatment, cells (1×10^6) were washed in phosphate-buffered saline (PBS), stained with CD74-FITC (BD BIOSCIENCES, San Jose, Calif.) for 15 minutes at 4° C., then rinsed in PBS and analyzed by flow cytometry (EPICS-XL™; BECKMAN COULTER, Fullerton, Calif.). A total of 10,000 events were collected and analyzed using Windows Multiple Document Interface for Flow Cytometry (WinMDI, Scripps Research Institute, San Diego, Calif.).
To determine the influence of FTY720 treatment on CD74 surface levels, Jeko-1 and Mino cells were incubated with FTY720, chloroquine or rapamycin for 8 and 24 hours. CD74 MFI values were determined by CD74-FITC staining and flow cytometry.

Capan-1 = assay: Flow cytometry of CD74, HLA-DR, CEACAM5 with directly labeled MAbs, with and without IFN-γ; assay type: cell-based
Procedure: (§2) Expression of CD74, HLA-DR, and carcinoembryonic antigen (CEACAM5) was determined in untreated cells and cells exposed to 200 U of IFN-γ for 48 h by flow cytometry. Cells were stained with directly labeled MAbs in comparison to a directly labeled human IgG control. Antibodies were labeled using ALEXA FLUOR® 488 (Invitrogen, Carlsbad, Calif.). For determination of cytoplasmic antigen expression, cells were permeabilized prior to staining using the BD CYTOFIX/CYTOPERM™ kit (BD Biosciences, San Jose, Calif.).

TU118 = assay: as above; assay type: cell-based
Procedure: as §2

U118 = assay: as above; assay type: cell-based
Procedure: as §2

KMS11 = assay: as above; assay type: cell-based
Procedure: as §2

Aspc-1 = assay: as above; assay type: cell-based
Procedure: as §2

CAG = assay: as above; assay type: cell-based
Procedure: as §2

Lovo = assay: as above; assay type: cell-based
Procedure: as §2

LS174T = assay: as above; assay type: cell-based
Procedure: as §2

BxPC-3 = assay: as above; assay type: cell-based
Procedure: as §2

HT29 = assay: as above; assay type: cell-based
Procedure: as §2

FSCCL = assay: as above; assay type: cell-based
Procedure: as §2

Panc-1 = assay: as above; assay type: cell-based
Procedure: as §2

RL = assay: as above; assay type: cell-based
Procedure: as §2

Moser = assay: as above; assay type: cell-based
Procedure: as §2

U87 = assay: as above; assay type: cell-based
Procedure: as §2

[7] = system: RII isoform of PKA compared with the RI isoform; settings: cited from earlier work
[8] = target: DDD of the RII form of PKA (RIIα dimers) (Homo sapiens, UniProt P13861); settings: read-out: binding constant for DDD; cited from earlier work
MCL cell lines = assay: Cytotoxicity of OSU-2S; assay type: cell-based

Chain of DDD of the RII form of PKA (RIIα dimers) (P13861 whole entry): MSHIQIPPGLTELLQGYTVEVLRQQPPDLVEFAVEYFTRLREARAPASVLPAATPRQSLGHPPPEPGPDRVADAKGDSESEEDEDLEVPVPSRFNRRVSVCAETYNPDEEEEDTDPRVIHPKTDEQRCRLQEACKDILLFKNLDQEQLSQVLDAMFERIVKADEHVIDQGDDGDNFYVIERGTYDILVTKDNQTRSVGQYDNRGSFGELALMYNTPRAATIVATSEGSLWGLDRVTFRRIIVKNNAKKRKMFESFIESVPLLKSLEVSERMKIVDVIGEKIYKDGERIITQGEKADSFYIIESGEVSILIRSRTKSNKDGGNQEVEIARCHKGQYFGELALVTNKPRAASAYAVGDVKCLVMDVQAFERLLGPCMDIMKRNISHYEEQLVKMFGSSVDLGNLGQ

rhodamine-conjugated milatuzumab: fluorescence labeled milatuzumab made with NHS-rhodamine
internalization of CD74 [1]: rapid internalization of CD74

CCN(CC)CCCC(C)Nc1ccnc2cc(Cl)ccc12 (stereo not drawn) [chloroquine]
acridine orange green fluorescence (FL1) (Jeko-1 and Mino cells): slight increase of green fluorescence
p62 levels [2]: significant increase of p62 levels
LC3-II levels [3]: significant increase in LC3-II levels; also recorded: increased levels of LC3-II
ultrastructural morphologic changes (TEM) [4]: increased accumulation of autophagosomes
LC3 fluorescence intensity [5]: statistically significant increase in LC3 fluorescence intensity
CD74 MFI (surface) [6]: slight increase of CD74 MFI

Labetuzumab: anti-CEA antibody, directly labeled
Cell surface expression (staining with directly labeled MAb) (Capan-1; Capan + IFNγ 200 U, 48 h): 48.8
% change of cell surface expression with IFNγ (Capan-1; Capan-1): −15.1%
% change of cytoplasmic expression with IFNγ (Capan-1; Capan-1): 8.7%
Cell surface expression (staining with directly labeled MAb) (Capan-1; Capan-1, without IFN-γ): 57.5
% change of cell surface expression with IFNγ (TU118; TU118): 13.0%
% change of cytoplasmic expression with IFNγ (TU118; TU118): 115.5%
Cell surface expression (staining with directly labeled MAb) (TU118; TU118 + IFNγ 200 U, 48 h): 5.29
Cell surface expression (staining with directly labeled MAb) (TU118; TU118, without IFN-γ): 4.68
% change of cell surface expression with IFNγ (U118; U118): 2.4%
% change of cytoplasmic expression with IFNγ (U118; U118): 78.2%
Cell surface expression (staining with directly labeled MAb) (U118; U118 + IFNγ 200 U, 48 h): 5.6
Cell surface expression (staining with directly labeled MAb) (U118; U118, without IFN-γ): 5.5
% change of cell surface expression with IFNγ (KMS11; KMS11): 7.1%
% change of cytoplasmic expression with IFNγ (KMS11; KMS11): −11.4%
Cell surface expression (staining with directly labeled MAb) (KMS11; KMS11 + IFNγ 200 U, 48 h): 2.3
Cell surface expression (staining with directly labeled MAb) (KMS11; KMS11, without IFN-γ): 2.1
% change of cell surface expression with IFNγ (Aspc-1; Aspc-1): 26.3%
% change of cytoplasmic expression with IFNγ (Aspc-1; Aspc-1): 53.2%
Cell surface expression (staining with directly labeled MAb) (Aspc-1; Aspc-1 + IFNγ 200 U, 48 h): 66.8
Cell surface expression (staining with directly labeled MAb) (Aspc-1; Aspc-1, without IFN-γ): 52.9
% change of cell surface expression with IFNγ (CAG; CAG): 3.0%
% change of cytoplasmic expression with IFNγ (CAG; CAG): 27.4%
Cell surface expression (staining with directly labeled MAb) (CAG; CAG + IFNγ 200 U, 48 h): 5.2
Cell surface expression (staining with directly labeled MAb) (CAG; CAG, without IFN-γ): 5.0
% change of cell surface expression with IFNγ (Lovo; Lovo): 48.6%
% change of cytoplasmic expression with IFNγ (Lovo; Lovo): 52.4%
Cell surface expression (staining with directly labeled MAb) (Lovo; Lovo + IFNγ 200 U, 48 h): 84.4
Cell surface expression (staining with directly labeled MAb) (Lovo; Lovo, without IFN-γ): 56.8
% change of cell surface expression with IFNγ (LS174T; LS174T): 167.9%
% change of cytoplasmic expression with IFNγ (LS174T; LS174T): 195.9%
Cell surface expression (staining with directly labeled MAb) (LS174T; LS174T + IFNγ 200 U, 48 h): 163.7
Cell surface expression (staining with directly labeled MAb) (LS174T; LS174T, without IFN-γ): 61.1
% change of cell surface expression with IFNγ (BxPC-3; BxPC-3): 25.6%
% change of cytoplasmic expression with IFNγ (BxPC-3; BxPC-3): 52.7%
Cell surface expression (staining with directly labeled MAb) (BxPC-3; BxPC-3 + IFNγ 200 U, 48 h): 7.0
Cell surface expression (staining with directly labeled MAb) (BxPC-3; BxPC-3, without IFN-γ): 5.6
% change of cell surface expression with IFNγ (HT29; HT29): 213.5%
% change of cytoplasmic expression with IFNγ (HT29; HT29): 122.7%
Cell surface expression (staining with directly labeled MAb) (HT29; HT29 + IFNγ 200 U, 48 h): 34.9
Cell surface expression (staining with directly labeled MAb) (HT29; HT29, without IFN-γ): 11.1
% change of cell surface expression with IFNγ (FSCCL; FSCCL): 7.6%
% change of cytoplasmic expression with IFNγ (FSCCL; FSCCL): 100.7%
Cell surface expression (staining with directly labeled MAb) (FSCCL; FSCCL + IFNγ 200 U, 48 h): 2.8
Cell surface expression (staining with directly labeled MAb) (FSCCL; FSCCL, without IFN-γ): 2.6
% change of cell surface expression with IFNγ (Panc-1; Panc-1): 6.3%
% change of cytoplasmic expression with IFNγ (Panc-1; Panc-1): 161.2%
Cell surface expression (staining with directly labeled MAb) (Panc-1; Panc-1 + IFNγ 200 U, 48 h): 4.4
Cell surface expression (staining with directly labeled MAb) (Panc-1; Panc-1, without IFN-γ): 4.1
% change of cell surface expression with IFNγ (RL; RL): 17.3%
% change of cytoplasmic expression with IFNγ (RL; RL): 37.9%
Cell surface expression (staining with directly labeled MAb) (RL; RL + IFNγ 200 U, 48 h): 2.9
Cell surface expression (staining with directly labeled MAb) (RL; RL, without IFN-γ): 2.4
% change of cell surface expression with IFNγ (Moser; Moser): 20.9%
% change of cytoplasmic expression with IFNγ (Moser; Moser): 41.8%
Cell surface expression (staining with directly labeled MAb) (Moser; Moser + IFNγ 200 U, 48 h): 77.2
Cell surface expression (staining with directly labeled MAb) (Moser; Moser, without IFN-γ): 63.8
% change of cell surface expression with IFNγ (U87; U87): 23.8%
% change of cytoplasmic expression with IFNγ (U87; U87): 79.0%
Cell surface expression (staining with directly labeled MAb) (U87; U87 + IFNγ 200 U, 48 h): 4.5
Cell surface expression (staining with directly labeled MAb) (U87; U87, without IFN-γ): 3.7

QIEYVAKQIVDYAIHQA [SuperAKAP-IS]
selectivity for RII over RI isoform of PKA [7]: five order of magnitude higher selectivity

QIEYLAKQIVDNAIQQA [AKAP-IS]
pKd [8]: 9.40

CCC[C@@](N)(CO)CCc1ccc(OCCCCCC(C)C)cc1 [OSU-2S, (S)-2-amino-2-(4-[(6-methylheptyl)-oxy]phenethyl)pentan-1-ol]
LC3-II levels ([3]; Jeko-1, Mino and Z-138 cell lines, 24 hours, Western blotting): increased levels of LC3-II
cytotoxicity (MCL cell lines; MCL cell lines): exhibited cytotoxicity
cytotoxic activity (MCL cell lines; MCL cell lines and primary cells): significant cytotoxic activity
